In patent publication US8084596B2, “Regulated apoptosis” (The Board of Trustees of the Leland Stanford Junior …, priority 1993, dated 2011):

Biological target: T1, myristoylated Fas-FKBP12 fusion protein (MFF3E) (Homo sapiens, UniProt P25445)
T1 construct: expressed in transfected cells; host or cells: Jurkat T cells stably transformed with large T-antigen, transient transfection
Type: cell-based

T1 sequence (P25445 with tags, fused parts or gaps): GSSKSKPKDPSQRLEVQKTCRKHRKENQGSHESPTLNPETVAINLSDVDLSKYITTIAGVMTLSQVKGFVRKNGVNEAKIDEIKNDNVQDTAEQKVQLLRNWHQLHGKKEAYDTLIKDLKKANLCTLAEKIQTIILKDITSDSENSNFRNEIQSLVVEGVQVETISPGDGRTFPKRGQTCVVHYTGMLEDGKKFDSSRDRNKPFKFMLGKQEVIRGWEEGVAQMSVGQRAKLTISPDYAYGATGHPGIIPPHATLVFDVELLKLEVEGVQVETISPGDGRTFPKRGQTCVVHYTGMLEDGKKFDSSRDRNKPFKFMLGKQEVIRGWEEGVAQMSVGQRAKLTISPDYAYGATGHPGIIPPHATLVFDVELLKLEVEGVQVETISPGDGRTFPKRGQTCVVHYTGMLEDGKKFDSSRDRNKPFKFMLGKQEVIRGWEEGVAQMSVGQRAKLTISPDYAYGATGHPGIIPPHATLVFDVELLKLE

In the case of “FK1012-A (p-xylylenediamine bridge) [FK1012A]”, the “LD50 for mediated death of cells” value is reported as 15 nM.
